Data on 26 molecules can be found in publication PMC4020744, “Modification, Biological Evaluation and 3D QSAR Studies of Novel 2-(1,3-Diaryl- 4,5-Dihydro-1H-Pyrazol-5-yl)Phenol Derivatives as Inhibitors of B-Raf Kinase” (PLoS ONE, 2014).

The test system of series [1] is WM266.4 human melanoma cell line. Nature of the series: Anti-proliferation assay (MTT). The conditions noted are these: WM 266-4, WM266.4 human melanoma cell growth, 24 h. The format is cell-based. The protocol:
WM266.4 melanoma cells were cultured in DMEM/10% fetal bovine serum, in 5% CO2 water saturated atmosphere at 37°C. Cell suspensions (10000/mL) were prepared and 100 µL/well dispensed into 96-well plates (Costar) giving 1000 cells/well. The plates were returned to the incubator for 24h to allow the cells to reattach. These compounds were initially prepared at 20mM in DMSO. Aliquots (200 µL) were diluted into 20mL culture medium giving 200 µM, and 10 serial dilutions of 3x prepared. Aliquots (100 µL) of each dilution were added to the wells, giving doses ranging from 100 µM to 0.005 µM. After a further incubated at 37°C for 24h in a humidified atmosphere with 5% CO2, the cell viability was assessed by the conventional 3-(4,5-dimethylthiazol-2-yl)-2,5-diphenyltetrazolium bromide (MTT) reduction assay and carried out strictly according to the manufacturer instructions (Sigma). The absorbance at 590nm was recorded using LX300 Epson Diagnostic micro-plate reader. Then GI50 was calculated using SPSS 13.0 software.

The target of a further series is B-Raf^V600E. The series can be described thus: V600E mutant B-Raf kinase inhibitory assay (B-Raf^V600E mediated MEK phosphorylation).
B-Raf^V600E, sequence (P28028 whole entry V585E): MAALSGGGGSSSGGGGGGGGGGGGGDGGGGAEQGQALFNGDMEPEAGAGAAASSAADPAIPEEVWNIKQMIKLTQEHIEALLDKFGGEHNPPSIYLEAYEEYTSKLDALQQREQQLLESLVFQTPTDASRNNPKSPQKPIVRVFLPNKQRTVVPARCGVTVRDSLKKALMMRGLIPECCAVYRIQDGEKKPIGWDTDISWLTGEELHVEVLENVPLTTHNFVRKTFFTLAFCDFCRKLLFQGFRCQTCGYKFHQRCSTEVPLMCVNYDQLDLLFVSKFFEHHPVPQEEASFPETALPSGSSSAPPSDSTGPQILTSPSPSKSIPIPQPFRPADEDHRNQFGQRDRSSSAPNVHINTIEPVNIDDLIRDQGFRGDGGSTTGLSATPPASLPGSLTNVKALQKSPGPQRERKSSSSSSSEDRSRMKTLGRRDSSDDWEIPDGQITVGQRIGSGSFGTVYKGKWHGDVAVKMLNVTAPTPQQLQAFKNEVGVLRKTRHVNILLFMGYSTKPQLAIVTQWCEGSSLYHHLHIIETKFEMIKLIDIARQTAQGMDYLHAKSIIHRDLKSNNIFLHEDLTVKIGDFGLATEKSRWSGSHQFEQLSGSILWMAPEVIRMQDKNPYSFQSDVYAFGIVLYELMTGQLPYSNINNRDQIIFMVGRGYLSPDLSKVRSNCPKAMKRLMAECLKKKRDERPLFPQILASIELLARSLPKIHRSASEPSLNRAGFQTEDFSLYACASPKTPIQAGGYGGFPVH

Method for B-Raf^V600E: Briefly, 7.5 ng Mouse Full-Length GST-tagged BRAF^V600E (Invitrogen, PV3849) was preincubated at room temperature for 1 h with 1 µL drug and 4 µL assay dilution buffer. The kinase assay was initiated when 5 µL of a solution containing 200 ng recombinant human full length, N-terminal His-tagged MEK1 (Invitrogen), 200 µM ATP, and 30 mM MgCl2 in assay dilution buffer was added. The kinase reaction was allowed to continue at room temperature for 25 min and was then quenched with 5 µL 5x protein denaturing buffer (LDS) solution. Protein was further denatured by heating for 5 min at 70°C. 10 µL of each reaction was loaded into a 15-well, 4–12% precast NuPage gel (Invitrogen) and run at 200 V, and upon completion, the front, which contained excess hot ATP, was cut from the gel and discarded. The gel was then dried and developed onto a phosphor screen.

Take `Oc1c(Cl)cc(Cl)cc1C1CC(c2ccc(Cl)c(Cl)c2)=NN1c1ccccc1` (centres unmarked) [Compound C24, 2,4-dichloro-6-(3-(3,4-dichlorophenyl)-1-phenyl-4,5-dihydro-1H-pyrazol-5-yl)phenol]: the melting point is 63 to 65 °C. In series [1], this molecule yielded a GI50 of 2.34 ± 0.17 µM. In addition, it took 0.97 ± 0.09 µM to reach half-maximal inhibition at B-Raf^V600E (IC50).
Taken in the same sequence, the figures for `Oc1ccc(Cl)cc1C1CC(c2ccc(Br)cc2)=NN1c1ccccc1` (centres unmarked) [Compound C9, 2-(3-(4-bromophenyl)-1-phenyl-4,5-dihydro-1H-pyrazol-5-yl)-4-chlorophenol] were 90 to 93 °C, 2.73 ± 0.21 µM and 1.37 ± 0.13 µM.
The molecule `Oc1ccccc1C1CC(c2ccc(Cl)c(Cl)c2)=NN1c1ccccc1` (centres unmarked) [Compound C6, 2-(3-(3,4-dichlorophenyl)-1-phenyl-4,5-dihydro-1H-pyrazol-5-yl)phenol] yielded a melting point of 57 to 59 °C. For the same molecule, growth in series [1] was halved (GI50) at 1.75 ± 0.12 µM. The same molecule yielded an IC50 on B-Raf^V600E of 0.15 ± 0.01 µM.
With `Oc1ccc(Cl)cc1C1CC(c2ccc(F)cc2)=NN1c1ccccc1` (centres unmarked) [Compound C7, 4-chloro-2-(3-(4-fluorophenyl)-1-phenyl-4,5-dihydro-1H-pyrazol-5-yl)phenol], the melting point was 60 to 63 °C. For the same molecule, the GI50 in series [1] is 4.26 ± 0.36 µM. Further, the IC50 at B-Raf^V600E came out at 2.6 ± 0.23 µM.
Turning to `Oc1ccccc1C1CC(c2ccc(F)cc2)=NN1c1ccccc1` (centres unmarked) [Compound C1, 2-(3-(4-fluorophenyl)-1-phenyl-4,5-dihydro-1H-pyrazol-5-yl)phenol], the melting point was in the range of 38 to 41 °C. In series [1], this molecule yielded a GI50 above 50 µM. This molecule also came in with an IC50 at B-Raf^V600E of 71.9 ± 6.77 µM.
`COc1ccc(C2=NN(c3ccccc3)C(c3ccccc3O)C2)cc1` (centres unmarked) [Compound C5, 2-(3-(4-methoxyphenyl)-1-phenyl-4,5-dihydro-1H-pyrazol-5-yl)phenol] came in with a melting point of 35 to 37 °C. Halving of growth in series [1] (GI50) required 1.98 ± 0.17 µM. Further, at B-Raf^V600E, the IC50 was 0.51 ± 0.05 µM.
With `Oc1c(Cl)cc(Cl)cc1C1CC(c2ccc(Cl)cc2)=NN1c1ccccc1` (centres unmarked) [Compound C20, 2,4-dichloro-6-(3-(4-chlorophenyl)-1-phenyl-4,5-dihydro-1H-pyrazol-5-yl)phenol], the melting point fell in the range of 42 to 43 °C. Besides, in series [1], the GI50 is 3.59 ± 0.28 µM. The molecule further showed an IC50 against B-Raf^V600E of 2.14 ± 0.19 µM.
`COc1ccc(C2=NN(c3ccccc3)C(c3cc(Br)ccc3O)C2)cc1` (centres unmarked) [Compound C17, 4-bromo-2-(3-(4-methoxyphenyl)-1-phenyl-4,5-dihydro-1H-pyrazol-5-yl)phenol] yielded a melting point of 65 to 67 °C. For the same molecule, in series [1], the GI50 worked out at 2.03 ± 0.18 µM. For the same molecule, the IC50 at B-Raf^V600E was found to be 0.57 ± 0.05 µM.
For the molecule `CCCS(=O)(=O)Nc1ccc(F)c(C(=O)c2c[nH]c3ncc(-c4ccc(Cl)cc4)cc23)c1F` [Vemurafenib, reference compound], growth in series [1] was halved (GI50) at 0.21 ± 0.02 µM.
For `Oc1ccc(Cl)cc1C1CC(c2ccc(Cl)c(Cl)c2)=NN1c1ccccc1` (centres unmarked) [Compound C12, 4-chloro-2-(3-(3,4-dichlorophenyl)-1-phenyl-4,5-dihydro-1H-pyrazol-5-yl)phenol], the melting point lay in the range of 77 to 79 °C. For the same molecule, the GI50 in series [1] was 1.99 ± 0.13 µM. The same molecule had an IC50 at B-Raf^V600E of 0.5 ± 0.05 µM.
As for `Oc1ccc(Br)cc1C1CC(c2ccc(Br)cc2)=NN1c1ccccc1` (centres unmarked) [Compound C15, 4-bromo-2-(3-(4-bromophenyl)-1-phenyl-4,5-dihydro-1H-pyrazol-5-yl)phenol], the melting point lay in the range of 104 to 106 °C. For the same molecule, in series [1], the GI50 was determined as 2.65 ± 0.19 µM. The molecule further gave a 50% inhibitory concentration (IC50) on B-Raf^V600E of 1.29 ± 0.1 µM.
Turning to `Oc1ccccc1C1CC(c2ccc(Cl)cc2)=NN1c1ccccc1` (centres unmarked) [Compound C2, 2-(3-(4-chlorophenyl)-1-phenyl-4,5-dihydro-1H-pyrazol-5-yl)phenol], the melting point fell in the range of 54 to 56 °C. In series [1], this molecule registered a GI50 of 2.01 ± 0.13 µM. At B-Raf^V600E, this molecule registered an IC50 of 0.5 ± 0.04 µM.
Take `Oc1ccc(Br)cc1C1CC(c2ccc(Cl)cc2)=NN1c1ccccc1` (centres unmarked) [Compound C14, 4-bromo-2-(3-(4-chlorophenyl)-1-phenyl-4,5-dihydro-1H-pyrazol-5-yl)phenol]: the melting point was in the range of 88 to 91 °C. This molecule also displayed a GI50 in series [1] of 3.69 ± 0.32 µM. Also, the IC50 against B-Raf^V600E came out at 2.2 ± 0.2 µM.
The molecule `COc1ccc(C2=NN(c3ccccc3)C(c3cc(Cl)ccc3O)C2)cc1` (centres unmarked) [Compound C11, 4-chloro-2-(3-(4-methoxyphenyl)-1-phenyl-4,5-dihydro-1H-pyrazol-5-yl)phenol] had a melting point of 49 to 51 °C. The GI50 in series [1] worked out at 2.43 ± 0.16 µM. On B-Raf^V600E, this molecule showed an IC50 of 1.07 ± 0.08 µM.
Turning to `Oc1ccc(Br)cc1C1CC(c2ccc(F)cc2)=NN1c1ccccc1` (centres unmarked) [Compound C13, 4-bromo-2-(3-(4-fluorophenyl)-1-phenyl-4,5-dihydro-1H-pyrazol-5-yl)phenol], the melting point was in the range of 73 to 76 °C. In series [1], this molecule yielded a GI50 of 4.45 ± 0.41 µM. The half-maximal inhibitory concentration (IC50) against B-Raf^V600E worked out at 2.73 ± 0.19 µM.
Taken in the same sequence, the figures for `Oc1ccccc1C1CC(c2ccc(Br)cc2)=NN1c1ccccc1` (centres unmarked) [Compound C3, 2-(3-(4-bromophenyl)-1-phenyl-4,5-dihydro-1H-pyrazol-5-yl)phenol] were 65 to 68 °C, 2.09 ± 0.18 µM and 0.63 ± 0.06 µM.
With `Oc1c(Cl)cc(Cl)cc1C1CC(c2ccc(Br)cc2)=NN1c1ccccc1` (centres unmarked) [Compound C21, 2-(3-(4-bromophenyl)-1-phenyl-4,5-dihydro-1H-pyrazol-5-yl)-4,6-dichlorophenol], the melting point fell in the range of 56 to 59 °C. Growth in series [1] was halved (GI50) at 5.13 ± 0.49 µM. The IC50 against B-Raf^V600E came to 3.12 ± 0.26 µM.
In turn, `Cc1ccc(C2=NN(c3ccccc3)C(c3cc(Br)ccc3O)C2)cc1` (centres unmarked) [Compound C16, 4-bromo-2-(1-phenyl-3-(p-tolyl)-4,5-dihydro-1H-pyrazol-5-yl)phenol] returned a melting point of 59 to 63 °C. The molecule further gave a GI50 in series [1] of 4.55 ± 0.44 µM. Further, the concentration for half-maximal inhibition (IC50) against B-Raf^V600E amounted to 2.78 ± 0.21 µM.
As to `Oc1ccc(Br)cc1C1CC(c2ccc(Cl)c(Cl)c2)=NN1c1ccccc1` (centres unmarked) [Compound C18, 4-bromo-2-(3-(3,4-dichlorophenyl)-1-phenyl-4,5-dihydro-1H-pyrazol-5-yl)phenol], the melting point fell in the range of 95 to 98 °C. Moreover, in series [1], the GI50 was determined as 1.88 ± 0.15 µM. Also, the IC50 at B-Raf^V600E stood at 0.34 ± 0.02 µM.
As for `Cc1ccc(C2=NN(c3ccccc3)C(c3cc(Cl)ccc3O)C2)cc1` (centres unmarked) [Compound C10, 4-chloro-2-(1-phenyl-3-(p-tolyl)-4,5-dihydro-1H-pyrazol-5-yl)phenol], the melting point is 43 to 46 °C. In series [1], this molecule registered a GI50 of 5.37 ± 0.49 µM. Also, half-maximal inhibition against B-Raf^V600E (IC50) required 3.24 ± 0.28 µM.
For the molecule `COc1ccc(C2=NN(c3ccccc3)C(c3cc(Cl)cc(Cl)c3O)C2)cc1` (centres unmarked) [Compound C23, 2,4-dichloro-6-(3-(4-methoxyphenyl)-1-phenyl-4,5-dihydro-1H-pyrazol-5-yl)phenol], the melting point lay within 33 to 34 °C. For the same molecule, the GI50 in series [1] was 2.38 ± 0.23 µM. Besides, the IC50 at B-Raf^V600E worked out at 1.01 ± 0.08 µM.
For the molecule `C#Cc1cccc(Nc2ncnc3cc(OCCOC)c(OCCOC)cc23)c1` [Erlotinib, reference compound], halving of growth in series [1] (GI50) required 8.12 ± 0.75 µM.
For the molecule `Oc1c(Cl)cc(Cl)cc1C1CC(c2ccc(F)cc2)=NN1c1ccccc1` (centres unmarked) [Compound C19, 2,4-dichloro-6-(3-(4-fluorophenyl)-1-phenyl-4,5-dihydro-1H-pyrazol-5-yl)phenol], the melting point is 37 to 39 °C. In series [1], this molecule registered a GI50 of 3.76 ± 0.32 µM. On B-Raf^V600E, this molecule displayed an IC50 of 2.26 ± 0.19 µM.
Consider `Cc1ccc(C2=NN(c3ccccc3)C(c3cc(Cl)cc(Cl)c3O)C2)cc1` (centres unmarked) [Compound C22, 2,4-dichloro-6-(1-phenyl-3-(p-tolyl)-4,5-dihydro-1H-pyrazol-5-yl)phenol], for which the melting point lay within 29 to 31 °C. In series [1], this molecule gave a GI50 of 23.9 ± 1.99 µM. Besides, half-maximal inhibition against B-Raf^V600E (IC50) was put at 7.37 ± 0.65 µM.
Molecule `Cc1ccc(C2=NN(c3ccccc3)C(c3ccccc3O)C2)cc1` (centres unmarked) [Compound C4, 2-(1-phenyl-3-(p-tolyl)-4,5-dihydro-1H-pyrazol-5-yl)phenol] registered a melting point of 32 to 34 °C. The molecule further returned a GI50 in series [1] of 2.85 ± 0.23 µM. In addition, the IC50 on B-Raf^V600E turned out to be 1.49 ± 0.11 µM.
For the molecule `Oc1ccc(Cl)cc1C1CC(c2ccc(Cl)cc2)=NN1c1ccccc1` (centres unmarked) [Compound C8, 4-chloro-2-(3-(4-chlorophenyl)-1-phenyl-4,5-dihydro-1H-pyrazol-5-yl)phenol], the melting point lay in the range of 68 to 71 °C. In addition, the GI50 in series [1] came to 4.39 ± 0.31 µM. Moreover, the IC50 against B-Raf^V600E turned out to be 2.66 ± 0.19 µM.
